# In US20240115550A1, “TREATMENT OF MENTAL DISORDERS” (GH Research Ireland Limited, priority 2022, published 2024):
# Several values for one entry are separate records, joined by “and”; a condition that tells them apart may be missing. Equal entries are not always repeated.
# Key:
# [1] = system: human hepatocytes (Hμrel HumanPool co-culture); test: Metabolic stability in Hμrel human hepatocyte co-culture; format: in vitro ADME
# Description: The incubations were performed using 1 and 10 μM initial concentrations and sampling at 0, 1, 2, 4, 8, 24, 48, and 72 hours (h) time points. The samples were analysed using UPLC/QE-orbitrap-MS.
# human plasma protein = test: Plasma binding of 5-MIAA; format: in vitro ADME
# Description: Binding to human plasma protein was determined. Reported are the unbound fraction (fu) for three replicates as well as the mean unbound fraction, the standard deviation and the mean % recovery (Table 8).
# [2] = Infant exposure estimate (DID, RID) from breast milk concentrations
# [3] = LC-MS/MS of 5-MeO-DMT and metabolites in breastmilk, serum and urine of a lactating PPD patient
# [4] = Pharmacokinetics after single inhaled dose; format: in vivo, human
# [5] = system: Salmonella typhimurium (TA98, TA100, TA1535 and TA1537); test: Bacterial mutation test, Salmonella typhimurium; format: cell-based; conditions: up to 5000 μg/plate, absence and presence of S-9
# Description: (§1) These conditions included treatments at concentrations up to 5000 μg/plate (the maximum recommended concentration according to current regulatory guidelines), in the absence and in the presence of a rat liver metabolic activation system (S-9).
# [6] = system: Escherichia coli (WP2 uvrA pKM101); test: Bacterial mutation test, Escherichia coli; format: cell-based; conditions: up to 5000 μg/plate, absence and presence of S-9
# Description: as §1
# [7] = system: patients with postpartum depression (PPD); test: Clinical trial of inhaled 5-MeO-DMT in postpartum depression; format: in vivo, human; conditions: for MADRS response (>=50% improvement) and remission (total <=10): 6 mg then 12 mg
# Description: The single-arm, open-label clinical trial will involve 15 adult female patients with clinically diagnosed postpartum depression (PPD).
# The second dose (12 mg) will only be administered if: • a. A peak experience (total score of ≥75) has not been achieved following the 6 mg dose, and • b. The 6 mg dose was safe and well-tolerated according to the investigator, • c. Any psychoactive effects (PsE) of the prior dose have subsided, and • d. Pre-dose vital parameters and forced expiratory volume in one second (FEV1) are in normal range, or if outside of the normal range, are not clinically significant according to the investigator. • 3. Similarly, a third dose (18 mg) will only be administered if: • a. A peak experience (total score of ≥75) has not been achieved following the 12 mg dose, and • b. The 12 mg dose was safe and well-tolerated according to the investigator, and • c. Any PsE of the prior dose have subsided, and • d. Pre-dose vital parameters and forced expiratory volume in one second (FEV1) are in normal range, or if outside of the normal range, are not clinically significant according to the investigator.
# The patients will be assessed for a peak psychedelic experience (based on a patient-scored visual analogue scale, the PE scale), sedation, and other endpoints after dosing. Follow-up visits are planned for Day 1, and Day 7 after the dosing day.
# The following criteria must be met by all patients considered for clinical trial participation: • 1. Is female and in the age range between 18 and 45 years (inclusive) at screening. • 2. Has a body mass index (BMI) in the range of 18.5 and 35 kg/m^2 (inclusive) at screening. • 3. Meets the trial criteria for PPD as assessed by a trial psychiatrist or registered psychologist: • a. Diagnosis of Major Depressive Disorder without psychotic features, confirmed by the Mini-International Neuropsychiatric Interview (MINI), with peri-partum onset that began no earlier than gestation and no later than the first 4 weeks postpartum. • b. Has a Montgomery-Åsberg Depression Rating Scale (MADRS) total score of equal to or greater than 28 at screening and pre-dose on Day 0. • 6. […] Patients must have a negative pregnancy test at screening and on the pre-test day (Day −1). • 5. Is willing to delay start of other antidepressant or anxiety medication until after the end of the trial at Day 7 and agrees to keep any psychotherapy unchanged during the trial.
# A potential patient who meets any of the following key exclusion criteria will be excluded from participation in this trial: • 1. Has, based on history, psychiatric assessment, and evaluation of the MINI, a current or prior diagnosis of bipolar disorder, a manic or hypomanic episode, a psychotic disorder, Major Depressive Disorder (MDD) or other mood disorder with psychotic features, obsessive compulsive disorder, post-traumatic stress disorder (PTSD), autism spectrum disorder, borderline personality disorder, schizophrenia, delusional disorder, paranoid personality disorder, schizoaffective disorder, clinically significant intellectual disability, or any other psychiatric comorbidity that renders the patient unsuitable for the trial according to the investigator's judgment. • 2. Has one or more first or second degree relatives with a current or previously diagnosed bipolar disorder, psychotic disorder or other mood disorder (including MDD) with psychotic features. • 3. Is in the judgement of a trial psychiatrist or registered psychologist, at significant risk for suicide based on history, psychiatric assessment, and evaluation of suicidal ideation and suicidal behaviour based on the Columbia-Suicide Severity Rating Scale (C-SSRS). • 4. Has taken anti-depressive medication within 14 days or 5 half-lives (whichever is longer) prior to dosing (exception: within the last 5 weeks in the case of fluoxetine). • 5.
# [8] = 2.5 hours after last 5-MeO-DMT dose
# [9] = female, human, breast milk, inhaled
compound,measurement,setting,value
5-methoxyindole acetic acid [5-MIAA],remaining abundance,"[1]; after 72h with hepatocytes, 1 and 10 μM",75-82%
same,in vitro intrinsic clearance,"[1]; human hepatocytes, 1 μM",0.15 μl/min/million cells
same,plasma binding,human plasma protein; from mean fraction unbound,~50%
same,Mean % Recovery,human plasma protein; human plasma,81.4%
same,"unbound fraction (fu), Replicate 1",human plasma protein; human plasma,0.499
same,"unbound fraction (fu), Replicate 2",human plasma protein; human plasma,0.462
same,"unbound fraction (fu), Replicate 3",human plasma protein; human plasma,0.544
same,Mean fu,"human plasma protein; human plasma, three replicates",0.502
same,DID per kg,[2]; 5 kg infant,0.001377 mg/kg/day
same,total exposure of the infant (DID),[2]; three feeds of 250 ml,0.006886 mg 5-MIAA/day
same,"urine concentration, times higher than in serum",[3]; 5-MIAA at 2.5 hours,approx. 127 times
same,5-MIAA concentration in breast milk,[3]; 1 hour after last 5-MeO-DMT dose,13945.2
same,5-MIAA concentration in breast milk,[3]; [8],13240.9
same,5-MIAA urine concentration,[3]; [8],12
same,5-MIAA concentration in breast milk,[3]; 8.5 hours after last 5-MeO-DMT dose,359.4
COc1ccc2[nH]cc(CCN(C)C)c2c1 [5-MeO-DMT],detectability in plasma,[4]; 3 hours after inhalation,no longer detectable
same,accumulation upon repeated administration,[4]; repeated within 1 to 4 hours,No accumulation
same,mutation induction,[5],did not induce mutation
same,mutation induction,[6],did not induce mutation
same,MADRS response (>=50% improvement) and remission (total <=10),[7]; first PPD patient,fulfilled standard criteria
same,"BIMF management domain, percentage improvement","[7]; first PPD patient, Day 7",18%
same,"BIMF self-care domain, percentage improvement","[7]; first PPD patient, Day 7",44%
same,adverse events,"[7]; first PPD patient: cramping left abdominal pain and headache, Day 0","mild, short-lasting and resolved spontaneously"
same,MADRS item score,"[7]; first PPD patient, Day 1, as E149",0
same,BPRS item score,"[7]; first PPD patient, Day 1, rows as E155",1
same,BPRS item score,"[7]; first PPD patient, Day 7, rows as E155",1
same,BPRS item score,"[7]; first PPD patient, Discharge, item by row: r24 Somatic Concern, r25 Anxiety, r26 Emotional withdrawal, r28 Conceptual disorganization, r30 Guilt feelings, r31 Tension, r32 Mannerisms and Posturing, r34 Grandiosity, r35 Depressive Mood, r36 Hostility, r37 Suspiciousness, r38 Hallucinatory behaviour, r40 Motor retardation, r41 Uncooperativeness, r42 Unusual Thought Content, r44 Blunted affect, r45 E",1
same,MADRS response (>=50% improvement) and remission (total <=10),[7]; second PPD patient,fulfilled standard criteria
same,adverse events,"[7]; second PPD patient: vomiting Day 0, headache Day 5","mild, short-lasting and resolved spontaneously"
same,Daily Infant Dosage (DID) per kg,[2]; 5 kg infant,0.0001385 mg/kg/day
same,detection in breast milk,[3]; after 24 hours,did not detect
same,concentration at 2.5 h,[3]; [9],561 µg/mL
same,concentration at 8.5 h,[3]; [9],42.1 µg/mL
"COc1ccc2[nH]cc(CCO)c2c1 [5-methoxytryptophol, 5-methoxyindole-3-ethanol]",relative LC/MS peak area for 5-methoxytryptophol,"[1]; 0 h, incubation by row: r7 1 μM Hepatocytes, r8 1 μM Stromal cells, r9 10 μM Hepatocytes, r10 10 μM Stromal cells",100%
same,relative LC/MS peak area for 5-methoxytryptophol,"[1]; 1 h, as E141",79% and 87%
same,relative LC/MS peak area for 5-methoxytryptophol,"[1]; 2 h, as E141",57% and 81%
same,metabolic turnover,[1]; in 24 h with hepatocytes,complete disappearance
CN(C)CCc1c[nH]c2ccc(O)cc12 [bufotenine],detection in human serum,"[4]; after 5-MeO-DMT, in no case detected 15 minutes after administration",barely detected
same,detection in serum and breastmilk,[3]; any time point after 5-MeO-DMT,not detected
same,Bufotenine in Breastmilk,[3]; times by row as E172,BLQ (Below limit of quantification. The lower limit of quantification is 25 pg/ml for both 5-MeO-DMT and 5-MIAA in both serum and breastmilk; it is 25 pg/ml in urine for 5-MeO-DMT and 250 pg/ml for 5-MIAA in urine.)
same,Bufotenine in Serum,[3]; times by row as E172,BLQ (Below limit of quantification. The lower limit of quantification is 25 pg/ml for both 5-MeO-DMT and 5-MIAA in both serum and breastmilk; it is 25 pg/ml in urine for 5-MeO-DMT and 250 pg/ml for 5-MIAA in urine.)
